Data reported in ChEMBL document CHEMBL4831513, “Discovery of quinazoline derivatives as a novel class of potent and in vivo efficacious LSD1 inhibitors by drug repurposing” (Eur J Med Chem, 2021).
Each block holds one compound with its values, some of them ahead of it. Active and inactive are the calls of the source. No cut-off for these calls is given here.

Legend:
[1] = target: T1, Lysine-specific histone demethylase 1A (Homo sapiens, UniProt O60341)
Description: Inhibition of recombinant full length LSD1 (unknown origin) transfected in Escherichia coli BL21 (DE) using H3K4me2 as substrate by flourescence based analysis

[2] = test system: MGC-803; test: Induction of apoptosis in human MGC-803 cells assessed as late apoptotic cells at 10 uM measured after 24 hrs by Annexin V-FITC/PI staining based flow cytometry analysis (Rvb= 3.9%); assay type: functional
[3] = test system: PC-3; test: cells; settings: Homo sapiens, PC-3, 72 h
Description: Antiproliferative activity against human PC-3 cells assessed as cell growth inhibition measured after 72 hrs by MTT assay

[4] = test system: MGC-803; test: Induction of apoptosis in human MGC-803 cells assessed as necrotic cells at 10 uM measured after 24 hrs by Annexin V-FITC/PI staining based flow cytometry analysis (Rvb= 1%); assay type: functional
[5] = test system: BGC-823; test: cells; settings: Homo sapiens, BGC-823, 72 h
Description: Antiproliferative activity against human BGC-823 cells assessed as cell growth inhibition measured after 72 hrs by MTT assay

[6] = test system: MGC-803; test: Induction of apoptosis in human MGC-803 cells assessed as late apoptotic cells at 5 uM measured after 24 hrs by Annexin V-FITC/PI staining based flow cytometry analysis (Rvb= 3.9%); assay type: functional
[7] = target: Tyrosine-protein kinase BTK (Homo sapiens) (UniProt Q06187); test: Inhibition of N-terminal GST-fused human full length recombinant BTK expressed in baculovirus-infected Sf21 cells at 5 uM using 5-FAM-EAIYAAPFAKKK as a substrate incubated for 60 mins in the presence of ATP by caliper analysis relative to control
[8] = test system: MGC-803; test: Induction of apoptosis in human MGC-803 cells assessed as necrotic cells at 5 uM measured after 24 hrs by Annexin V-FITC/PI staining based flow cytometry analysis (Rvb= 1%); assay type: functional
[9] = test system: MGC-803; test: Inhibition of clonogenicity in human MGC-803 cells assessed as reduction in colony formation measured after 10 days by crystal violet staining based analysis; assay type: functional, cell-based; settings: dose 1-20 µM, time 10.0 day
[10] = organism: Homo sapiens; test: Selectivity index, ratio of IC50 for inhibition of EGFR (unknown origin) to IC50 for inhibition of recombinant human full length LSD1 transfected in Escherichia coli BL21 (DE)
[11] = test system: MGC-803; test: Induction of apoptosis in human MGC-803 cells assessed as live cells at 20 uM measured after 24 hrs by Annexin V-FITC/PI staining based flow cytometry analysis (Rvb= 89%); assay type: functional
[12] = target: Glycogen synthase kinase-3 beta (Homo sapiens) (UniProt P49841); test: Inhibition of GSK-3beta (unknown origin) at 5 uM relative to control
[13] = test system: MGC-803; test: Induction of apoptosis in human MGC-803 cells assessed as live cells at 10 uM measured after 24 hrs by Annexin V-FITC/PI staining based flow cytometry analysis (Rvb= 89%); assay type: functional
[14] = target: Cyclin-dependent kinase 1 (Homo sapiens) (UniProt P06493); test: Inhibition of CDK1 (unknown origin) at 5 uM using 5-FAM-QSPKKG-CONH2 as a substrate incubated for 60 mins in the presence of ATP by caliper analysis relative to control
[15] = test system: MCF7; test: cells; settings: Homo sapiens, MCF7, 72 h
Description: Antiproliferative activity against human MCF7 cells assessed as cell growth inhibition measured after 72 hrs by MTT assay

[16] = target: T1, Lysine-specific histone demethylase 1A; test: Inhibition of LSD1 in human MGC-803 cells assessed as increase in H3K4me2 expression measured after 24 hrs by western blot analysis; assay type: cell-based; settings: dose 5-20 µM
[17] = test system: MGC-803; test: Inhibition of cell migration in human MGC-803 cells at 0.5 uM measured after 48 hrs by transwell assay relative to control; assay type: functional
[18] = Aqueous solubility of the compound in water; assay type: physicochemical
[19] = test system: NCI-H1650; test: cells; settings: Homo sapiens, NCI-H1650, 72 h
Description: Antiproliferative activity against human NCI-H1650 cells assessed as cell growth inhibition measured after 72 hrs by MTT assay

[20] = test system: MGC-803; test: Induction of apoptosis in human MGC-803 cells assessed as necrotic cells at 20 uM measured after 24 hrs by Annexin V-FITC/PI staining based flow cytometry analysis (Rvb= 1%); assay type: functional
[21] = Ocular toxicity in nude mouse xenografted with human MGC-803 cells at 40 to 80 mg/kg/day, iv administered for 21 days; assay type: organism-based; settings: in vivo, 504 h, dose 40-80 mg/kg/day, time 21 day
[22] = test system: MGC-803; test: Induction of apoptosis in human MGC-803 cells assessed as viable cells at 5 uM measured after 24 hrs by Annexin V-FITC/PI staining based flow cytometry analysis (Rvb= 89%); assay type: functional; settings: read-out: Activity
[23] = test system: MGC-803; test: Inhibition of epithelial mesenchymal transition process in human MGC-803 cells assessed as increase in E-cadherin expression at 0.1 to 0.5 uM measured after 24 hrs western blot analysis; assay type: functional, cell-based; settings: dose 0.1-0.5 µM
[24] = test system: MGC-803; test: Antitumor activity against human MGC-803 cells xenografted in nude mouse assessed as reduction in tumor weight at 40 mg/kg/day, iv administered for 21 days relative to control; assay type: functional; settings: MGC-803, iv, 504 h, time 21 day
[25] = test system: MGC-803; test: Induction of apoptosis in human MGC-803 cells assessed as early apoptotic cells at 5 uM measured after 24 hrs by Annexin V-FITC/PI staining based flow cytometry analysis (Rvb= 6.1%); assay type: functional
[26] = test system: NCI-H460; test: cells; settings: Homo sapiens, NCI-H460, 72 h
Description: Antiproliferative activity against human NCI-H460 cells assessed as cell growth inhibition measured after 72 hrs by MTT assay

[27] = test system: GES1; test: cells; settings: Homo sapiens, GES1, 72 h
Description: Cytotoxicity against human GES1 cells assessed as cell growth inhibition measured after 72 hrs by MTT assay

[28] = test system: NCI-H1975; test: cells; settings: Homo sapiens, NCI-H1975, 72 h
Description: Antiproliferative activity against human NCI-H1975 cells assessed as cell growth inhibition measured after 72 hrs by MTT assay

[29] = test system: MGC-803; test: Inhibition of clonogenicity in human MGC-803 cells assessed as reduction in colony formation at 10 uM measured after 10 days by crystal violet staining based analysis relative to control; assay type: functional; settings: MGC-803, 240 h, time 10 day
[30] = test system: MGC-803; test: Antitumor activity against human MGC-803 cells xenografted in nude mouse assessed as reduction in tumor weight at 80 mg/kg/day, iv administered for 21 days relative to control; assay type: functional; settings: MGC-803, iv, 504 h, time 21 day
[31] = Toxicity in nude mouse xenografted with human MGC-803 cells assessed as body weight loss at 40 to 80 mg/kg/day, iv administered for 21 days; assay type: organism-based; settings: in vivo, 504 h, dose 40-80 mg/kg/day, time 21 day
[32] = target: T1, Lysine-specific histone demethylase 1A; test: Inhibition of recombinant full length LSD1 (unknown origin) transfected in Escherichia coli BL21 (DE) at 5 uM using H3K4me2 as a substrate by flourescence based analysis relative to control
[33] = test system: ECa-109 cell line; test: cells; settings: Homo sapiens, ECa-109, 72 h
Description: Antiproliferative activity against human EC109 cells assessed as cell growth inhibition measured after 72 hrs by MTT assay

[34] = test system: MGC-803; test: Antitumor activity against human MGC-803 cells xenografted in nude mouse assessed as inhibition of tumor growth at 40 to 80 mg/kg/day, iv administered for 21 days; assay type: functional, organism-based; settings: dose 40-80 mg/kg/day, time 21.0 day
[35] = test system: MGC-803; test: Antitumor activity against human MGC-803 cells xenografted in nude mouse assessed as chromatin condensation in tumor tissue at 40 to 80 mg/kg/day, iv measured after 21 days by H and E staining based histopathological analysis; assay type: functional, organism-based; settings: dose 40-80 mg/kg/day, time 21.0 day
[36] = test system: MGC-803; test: cells; settings: Homo sapiens, MGC-803, 72 h
Description: Antiproliferative activity against human MGC-803 cells assessed as cell growth inhibition measured after 72 hrs by MTT assay

[37] = test system: MGC-803; test: Induction of apoptosis in human MGC-803 cells assessed as late apoptotic cells at 20 uM measured after 24 hrs by Annexin V-FITC/PI staining based flow cytometry analysis (Rvb= 3.9%); assay type: functional
[38] = test system: HepG2; test: cells; settings: Homo sapiens, HepG2, 72 h
Description: Antiproliferative activity against human HepG2 cells assessed as cell growth inhibition measured after 72 hrs by MTT assay

[39] = target: T2, MAO-B (Homo sapiens, UniProt P27338); test: Inhibition of N-terminal FLAG-tagged recombinant human MAO-B expressed in baculovirus-infected Sf9 cells at 5 uM using luciferin derivative as substrate pretreated for 15 mins followed by substrate addition and incubated for 60 mins by luciferase assay relative to control; settings: probe luciferin derivative, time 75 min
T2 sequence (P27338 whole entry): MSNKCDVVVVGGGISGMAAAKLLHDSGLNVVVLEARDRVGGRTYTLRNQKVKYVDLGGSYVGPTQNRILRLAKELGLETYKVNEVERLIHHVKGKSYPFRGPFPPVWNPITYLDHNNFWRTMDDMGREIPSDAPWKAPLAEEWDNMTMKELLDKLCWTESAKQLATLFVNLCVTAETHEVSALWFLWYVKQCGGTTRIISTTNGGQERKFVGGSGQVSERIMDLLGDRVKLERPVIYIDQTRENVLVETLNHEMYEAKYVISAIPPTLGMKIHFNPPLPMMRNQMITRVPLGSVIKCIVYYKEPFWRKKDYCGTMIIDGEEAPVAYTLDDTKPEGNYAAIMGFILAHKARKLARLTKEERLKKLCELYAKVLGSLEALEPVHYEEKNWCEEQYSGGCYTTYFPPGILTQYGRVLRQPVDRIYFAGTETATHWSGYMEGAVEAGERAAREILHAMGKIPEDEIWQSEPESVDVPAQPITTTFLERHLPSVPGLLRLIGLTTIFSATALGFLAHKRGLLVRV

[40] = test system: MGC-803; test: Antitumor activity against human MGC-803 cells xenografted in nude mouse assessed as pyknosis in tumor tissue at 40 to 80 mg/kg/day, iv measured after 21 days by H and E staining based histopathological analysis; assay type: functional, organism-based; settings: dose 40-80 mg/kg/day, time 21.0 day
[41] = test system: MGC-803; test: Inhibition of epithelial mesenchymal transition process in human MGC-803 cells assessed as decrease in N-cadherin expression at 0.1 to 0.5 uM measured after 24 hrs western blot analysis; assay type: functional, cell-based; settings: dose 0.1-0.5 µM
[42] = test system: MGC-803; test: Antitumor activity against human MGC-803 cells xenografted in nude mouse assessed as low cell density in tumor tissue at 40 to 80 mg/kg/day, iv measured after 21 days by H and E staining based histopathological analysis; assay type: functional, organism-based; settings: dose 40-80 mg/kg/day, time 21.0 day
[43] = test system: MGC-803; test: Induction of apoptosis in human MGC-803 cells assessed as early apoptotic cells at 20 uM measured after 24 hrs by Annexin V-FITC/PI staining based flow cytometry analysis (Rvb= 6.1%); assay type: functional
[44] = target: T3, MAO-A (Homo sapiens, UniProt P21397); test: Inhibition of N-terminal FLAG-tagged recombinant human MAO-A expressed in baculovirus-infected Sf9 cells at 5 uM using luciferin derivative as substrate pretreated for 15 mins followed by substrate addition and incubated for 60 mins by luciferase assay relative to control; settings: probe luciferin derivative, time 75 min
T3 sequence (P21397 whole entry): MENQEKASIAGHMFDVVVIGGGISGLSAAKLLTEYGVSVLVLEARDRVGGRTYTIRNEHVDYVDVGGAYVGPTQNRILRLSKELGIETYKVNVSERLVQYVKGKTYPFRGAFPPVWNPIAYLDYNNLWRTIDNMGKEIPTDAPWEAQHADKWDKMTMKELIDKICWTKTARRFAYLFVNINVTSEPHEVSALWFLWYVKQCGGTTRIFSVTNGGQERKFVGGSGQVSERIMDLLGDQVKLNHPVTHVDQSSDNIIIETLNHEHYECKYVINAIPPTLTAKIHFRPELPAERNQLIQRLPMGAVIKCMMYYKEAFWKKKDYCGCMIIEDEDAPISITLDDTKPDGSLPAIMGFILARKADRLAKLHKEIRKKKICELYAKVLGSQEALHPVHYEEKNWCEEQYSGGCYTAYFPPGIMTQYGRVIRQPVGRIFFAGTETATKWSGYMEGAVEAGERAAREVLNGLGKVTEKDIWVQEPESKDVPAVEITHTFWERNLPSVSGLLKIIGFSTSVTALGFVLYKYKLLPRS

[45] = test system: MGC-803; test: Induction of apoptosis in human MGC-803 cells assessed as early apoptotic cells at 10 uM measured after 24 hrs by Annexin V-FITC/PI staining based flow cytometry analysis (Rvb= 6.1%); assay type: functional
[46] = target: Epidermal growth factor receptor (Homo sapiens, UniProt P00533); test: Inhibition of EGFR (unknown origin)
Chain of Epidermal growth factor receptor (P00533 whole entry): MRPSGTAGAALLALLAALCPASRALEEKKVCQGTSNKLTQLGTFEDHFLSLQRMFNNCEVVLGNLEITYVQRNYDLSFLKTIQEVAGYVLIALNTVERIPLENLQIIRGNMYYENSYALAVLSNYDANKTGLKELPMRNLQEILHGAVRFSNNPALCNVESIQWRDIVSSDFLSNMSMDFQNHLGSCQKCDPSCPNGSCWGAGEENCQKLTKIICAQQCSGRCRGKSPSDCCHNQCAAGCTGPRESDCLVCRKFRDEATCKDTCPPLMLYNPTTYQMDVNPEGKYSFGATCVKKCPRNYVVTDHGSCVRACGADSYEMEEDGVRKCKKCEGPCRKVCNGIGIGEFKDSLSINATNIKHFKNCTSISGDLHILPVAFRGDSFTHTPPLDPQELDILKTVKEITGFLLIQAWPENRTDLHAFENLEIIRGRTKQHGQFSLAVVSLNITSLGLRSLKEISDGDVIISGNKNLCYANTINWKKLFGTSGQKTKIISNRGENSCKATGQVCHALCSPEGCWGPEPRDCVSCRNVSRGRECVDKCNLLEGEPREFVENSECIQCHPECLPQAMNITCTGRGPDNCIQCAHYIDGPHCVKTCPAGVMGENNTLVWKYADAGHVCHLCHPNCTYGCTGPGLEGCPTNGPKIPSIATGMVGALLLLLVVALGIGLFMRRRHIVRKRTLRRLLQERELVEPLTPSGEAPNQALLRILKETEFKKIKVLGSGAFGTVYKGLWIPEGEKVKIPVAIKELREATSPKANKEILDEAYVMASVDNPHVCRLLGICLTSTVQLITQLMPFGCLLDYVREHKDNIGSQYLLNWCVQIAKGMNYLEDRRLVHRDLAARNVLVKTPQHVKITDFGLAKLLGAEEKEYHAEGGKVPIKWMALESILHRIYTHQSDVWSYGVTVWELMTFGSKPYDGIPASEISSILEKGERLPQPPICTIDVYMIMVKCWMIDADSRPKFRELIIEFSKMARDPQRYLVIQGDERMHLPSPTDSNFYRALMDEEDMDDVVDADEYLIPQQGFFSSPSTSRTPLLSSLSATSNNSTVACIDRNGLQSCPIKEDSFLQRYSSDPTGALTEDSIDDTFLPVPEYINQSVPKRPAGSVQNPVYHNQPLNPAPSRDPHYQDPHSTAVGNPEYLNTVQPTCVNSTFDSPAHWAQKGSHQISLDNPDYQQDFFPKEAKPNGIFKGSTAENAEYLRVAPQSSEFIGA

Chain of Tyrosine-protein kinase BTK (Homo sapiens) (Q06187 whole entry, the tested form may be a part): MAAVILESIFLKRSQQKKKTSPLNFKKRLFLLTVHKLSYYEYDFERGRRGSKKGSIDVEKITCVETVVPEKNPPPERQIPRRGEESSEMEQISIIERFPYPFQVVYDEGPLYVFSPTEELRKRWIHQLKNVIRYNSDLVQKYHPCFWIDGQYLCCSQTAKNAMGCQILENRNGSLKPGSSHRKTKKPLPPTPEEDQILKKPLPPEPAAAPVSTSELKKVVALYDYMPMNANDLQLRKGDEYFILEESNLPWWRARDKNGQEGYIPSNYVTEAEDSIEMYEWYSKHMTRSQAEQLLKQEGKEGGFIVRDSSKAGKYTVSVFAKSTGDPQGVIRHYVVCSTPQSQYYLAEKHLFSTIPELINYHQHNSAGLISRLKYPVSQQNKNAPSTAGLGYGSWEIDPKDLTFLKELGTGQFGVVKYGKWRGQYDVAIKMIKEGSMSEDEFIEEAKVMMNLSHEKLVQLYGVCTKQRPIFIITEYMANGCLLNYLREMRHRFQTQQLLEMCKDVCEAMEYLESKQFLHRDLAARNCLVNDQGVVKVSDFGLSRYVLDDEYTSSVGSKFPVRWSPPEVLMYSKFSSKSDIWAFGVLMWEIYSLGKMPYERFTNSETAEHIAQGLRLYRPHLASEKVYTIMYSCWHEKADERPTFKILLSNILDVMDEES
Chain of Cyclin-dependent kinase 1 (Homo sapiens) (P06493 whole entry, looked up): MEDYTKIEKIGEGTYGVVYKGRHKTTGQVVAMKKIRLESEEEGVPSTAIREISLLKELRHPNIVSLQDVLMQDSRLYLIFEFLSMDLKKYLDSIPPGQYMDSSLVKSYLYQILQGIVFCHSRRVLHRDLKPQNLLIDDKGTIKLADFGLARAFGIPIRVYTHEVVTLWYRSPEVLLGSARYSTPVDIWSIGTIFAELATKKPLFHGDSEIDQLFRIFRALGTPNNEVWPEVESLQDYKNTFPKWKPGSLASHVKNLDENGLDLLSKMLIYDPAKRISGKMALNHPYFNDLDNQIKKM
Chain of Glycogen synthase kinase-3 beta (Homo sapiens) (P49841 whole entry, looked up): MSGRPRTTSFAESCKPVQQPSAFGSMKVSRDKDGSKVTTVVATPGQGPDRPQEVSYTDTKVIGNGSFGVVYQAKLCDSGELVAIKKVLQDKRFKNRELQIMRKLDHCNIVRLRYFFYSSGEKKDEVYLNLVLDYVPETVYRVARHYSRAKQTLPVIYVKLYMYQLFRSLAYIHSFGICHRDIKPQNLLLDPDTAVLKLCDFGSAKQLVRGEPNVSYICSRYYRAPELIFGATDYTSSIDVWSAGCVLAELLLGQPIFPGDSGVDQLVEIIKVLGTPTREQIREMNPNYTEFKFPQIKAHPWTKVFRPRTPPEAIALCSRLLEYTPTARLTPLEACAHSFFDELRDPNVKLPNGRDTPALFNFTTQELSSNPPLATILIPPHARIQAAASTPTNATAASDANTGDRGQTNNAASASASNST

IC50 [1]: > 50 µM
Compound: COCCOc1cc2ncnc(Nc3ccc(F)cc3)c2cc1OCCOC

IC50 [3]: > 50 µM | IC50 [5]: 15.3 µM | IC50 [1]: 0.69 µM | inhibition [7]: < 2% | Ratio IC50 [10]: 7.5 | inhibition [12]: 13% | inhibition [14]: < 2% | IC50 [15]: 38.5 µM | inhibition [16]: Dose-Dependent Effect | solubility [18]: > 100 mg/mL | IC50 [19]: 17.2 µM | IC50 [26]: 28.2 µM | IC50 [27]: > 50 µM | IC50 [28]: 26.6 µM | inhibition [32]: 97% | IC50 [33]: 9.65 µM | IC50 [36]: 9.21 µM | IC50 [38]: 16.2 µM | inhibition at 1.25 h, 5 µM [39]: 18% | inhibition at 1.25 h, 5 µM [44]: 15% | IC50 [46]: 5.21 µM
Compound: COCCOc1cc2ncnc(Sc3nc[nH]n3)c2cc1OCCOC
Activity [2]: 29.3% | Activity [4]: 2.2% | Activity [6]: 20.9% | Activity [8]: 0.4% | inhibition [9]: Dose-Dependent Effect | Activity [11]: 20.6% | Activity [13]: 55.1% | inhibition at 0.5 µM [17]: 70% | Activity [20]: 2.3% | Activity [21]: Non-Toxic | viability at 5 µM [22]: 68.4% | inhibition [23]: Active | inhibition in vivo at 40 mg/kg/day [24]: 81.6% | Activity [25]: 10.3% | inhibition at 10 µM [29]: > 90% | inhibition in vivo at 80 mg/kg/day [30]: 96.1% | Activity [31]: Non-Toxic | Activity [34]: Active | Activity [35]: Active | Activity [37]: 45.8% | Activity [40]: Active | inhibition [41]: Active | Activity [42]: Active | Activity [43]: 31.2% | Activity [45]: 13.3%

IC50 [1]: > 50 µM
Compound: C#Cc1cccc(Nc2ncnc3cc(OCc4ccccc4)c(OC)cc23)c1

IC50 [1]: > 50 µM
Compound: COCCOc1cc2ncnc(Oc3ccc(OC)cc3)c2cc1OCCOC
